Assay results published in patent US11566007B2, “Ras inhibitors” (Revolution Medicines, Inc., priority 2019, dated 2023).
Where “and” joins values, the source holds several entries; their conditions need not be identical. Equal values may be shown once. Read-outs that look alike come from different tables or passages of the source.

Columns and labels:
[1] = system: NCI-H358 cells (K-Ras G12C); assay: Potency assay: pERK in NCI-H358 cells; format: cell-based, human; settings: H358 KRAS G12C, read-out: pERK EC50
Procedure, shortened: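 pERK decrease read by AlphaLISA SureFire p-ERK1/2 or In-Cell Western after 4 h compound exposure at 37 °C, 5% CO2.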

K-Ras G12C = K-Ras G12C (Homo sapiens (Human), UniProt P01116+P62937, G12C); assay: Ras-Raf (BRAF RBD) disruption / FRET / MOA assay, KRAS G12C; format: biochemical; settings: KRAS G12C; Ras-Raf disruption/FRET/MOA assay; read-out: IC50* KRAS G12C FRET data
Chain of K-Ras G12C (P01116-2 other isoform, or with tags, fused parts or gaps G12C): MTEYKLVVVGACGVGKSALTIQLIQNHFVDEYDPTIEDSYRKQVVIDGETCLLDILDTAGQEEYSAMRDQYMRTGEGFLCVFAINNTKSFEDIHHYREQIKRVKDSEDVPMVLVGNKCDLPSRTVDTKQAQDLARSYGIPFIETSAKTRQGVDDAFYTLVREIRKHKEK
Chain of K-Ras G12C (P62937 whole entry): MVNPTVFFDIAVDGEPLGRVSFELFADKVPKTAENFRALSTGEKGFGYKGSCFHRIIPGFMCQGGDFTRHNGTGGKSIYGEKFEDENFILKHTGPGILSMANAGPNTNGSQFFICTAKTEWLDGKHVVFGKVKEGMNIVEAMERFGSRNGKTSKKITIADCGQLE
Procedure, shortened: (§1)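 Compounds, top final concentration 30 μM in 10-point 3-fold series, incubated 3 hours at 25° C with nucleotide-loaded Ras, cyclophilin A and BRAF RBD.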

K-Ras G13C = K-Ras G13C (Homo sapiens (Human), UniProt P01116+P62937, G13C); assay: Ras-Raf (BRAF RBD) disruption / FRET / MOA assay, KRAS G13C; format: biochemical; settings: KRAS G13C; Ras-Raf disruption/FRET/MOA assay; read-out: IC50* KRAS G13C FRET data
Chain of K-Ras G13C (P01116-2 other isoform, or with tags, fused parts or gaps G13C): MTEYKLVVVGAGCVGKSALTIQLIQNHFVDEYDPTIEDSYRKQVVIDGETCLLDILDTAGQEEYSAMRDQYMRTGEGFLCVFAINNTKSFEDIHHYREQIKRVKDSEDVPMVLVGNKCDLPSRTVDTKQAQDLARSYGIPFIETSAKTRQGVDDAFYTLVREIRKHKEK
Chain of K-Ras G13C (P62937 whole entry): as the sequence (P62937 whole entry) above
Procedure, shortened: as §1

KRAS G12S = KRAS G12S (Homo sapiens (Human), UniProt P01116+P62937, G12S); assay: Ras-Raf (BRAF RBD) disruption / FRET / MOA assay, KRAS G12S; format: biochemical; settings: Ras-Raf disruption/FRET/MOA assay; class symbols; read-out: KRAS G12S FRET data IC50
Chain of KRAS G12S (P01116-2 other isoform, or with tags, fused parts or gaps G12S): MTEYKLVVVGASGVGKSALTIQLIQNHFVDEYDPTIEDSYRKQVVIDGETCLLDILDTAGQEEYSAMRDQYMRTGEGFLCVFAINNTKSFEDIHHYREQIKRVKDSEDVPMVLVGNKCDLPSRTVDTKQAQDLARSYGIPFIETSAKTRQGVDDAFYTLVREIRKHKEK
Chain of KRAS G12S (P62937 whole entry): as the sequence (P62937 whole entry) above
Procedure, shortened: as §1

KRAS G12D = KRAS G12D (Homo sapiens (Human), UniProt P01116+P62937, G12D); assay: Ras-Raf (BRAF RBD) disruption / FRET / MOA assay, KRAS G12D; format: biochemical; settings: Ras-Raf disruption/FRET/MOA assay; class symbols; read-out: KRAS G12D FRET data IC50
Chain of KRAS G12D (P01116-2 other isoform, or with tags, fused parts or gaps G12D): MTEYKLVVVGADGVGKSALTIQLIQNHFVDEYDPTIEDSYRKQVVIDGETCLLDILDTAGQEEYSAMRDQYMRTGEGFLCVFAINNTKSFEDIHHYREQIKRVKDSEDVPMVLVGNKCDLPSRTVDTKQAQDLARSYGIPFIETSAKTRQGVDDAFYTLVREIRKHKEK
Chain of KRAS G12D (P62937 whole entry): as the sequence (P62937 whole entry) above
Procedure, shortened: as §1

KRAS G12V = KRAS G12V (Homo sapiens (Human), UniProt P01116+P62937, G12V); assay: Ras-Raf (BRAF RBD) disruption / FRET / MOA assay, KRAS G12V; format: biochemical; settings: read-out: IC50* KRAS G12V FRET data
Chain of KRAS G12V (P01116-2 other isoform, or with tags, fused parts or gaps G12V): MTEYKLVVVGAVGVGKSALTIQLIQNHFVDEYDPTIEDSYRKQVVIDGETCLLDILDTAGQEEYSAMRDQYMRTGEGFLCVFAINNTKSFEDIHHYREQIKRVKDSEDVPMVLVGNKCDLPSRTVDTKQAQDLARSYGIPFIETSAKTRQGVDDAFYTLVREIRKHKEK
Chain of KRAS G12V (P62937 whole entry): as the sequence (P62937 whole entry) above
Procedure, shortened: as §1

KRAS WT = KRAS WT (Homo sapiens (Human), UniProt P01116+P62937); assay: Ras-Raf (BRAF RBD) disruption / FRET / MOA assay, KRAS WT; format: biochemical; settings: read-out: IC50* KRAS WT FRET data
Chain of KRAS WT (P01116-2 other isoform, or with tags, fused parts or gaps): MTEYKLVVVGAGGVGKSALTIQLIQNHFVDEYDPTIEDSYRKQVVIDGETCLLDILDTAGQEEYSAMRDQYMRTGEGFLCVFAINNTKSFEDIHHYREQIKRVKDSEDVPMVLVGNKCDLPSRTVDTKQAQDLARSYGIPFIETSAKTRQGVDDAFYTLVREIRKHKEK
Chain of KRAS WT (P62937 whole entry): as the sequence (P62937 whole entry) above
Procedure, shortened: as §1

KRAS G13D = KRAS G13D (Homo sapiens (Human), UniProt P01116+P62937, G13D); assay: Ras-Raf (BRAF RBD) disruption / FRET / MOA assay, KRAS G13D; format: biochemical; settings: read-out: IC50* KRAS G13D FRET data
Chain of KRAS G13D (P01116-2 other isoform, or with tags, fused parts or gaps G13D): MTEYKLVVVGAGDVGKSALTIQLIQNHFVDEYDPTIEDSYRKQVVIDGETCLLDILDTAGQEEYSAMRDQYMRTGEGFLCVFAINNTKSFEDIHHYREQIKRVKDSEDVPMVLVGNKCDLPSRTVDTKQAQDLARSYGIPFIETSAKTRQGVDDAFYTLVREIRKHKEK
Chain of KRAS G13D (P62937 whole entry): as the sequence (P62937 whole entry) above
Procedure, shortened: as §1

KRAS Q61H = KRAS Q61H (Homo sapiens (Human), UniProt P01116+P62937, Q61H); assay: Ras-Raf (BRAF RBD) disruption / FRET / MOA assay, KRAS Q61H; format: biochemical; settings: Ras-Raf disruption/FRET/MOA assay; class symbols; read-out: KRAS Q61H FRET data IC50
Chain of KRAS Q61H (P01116-2 other isoform, or with tags, fused parts or gaps Q61H): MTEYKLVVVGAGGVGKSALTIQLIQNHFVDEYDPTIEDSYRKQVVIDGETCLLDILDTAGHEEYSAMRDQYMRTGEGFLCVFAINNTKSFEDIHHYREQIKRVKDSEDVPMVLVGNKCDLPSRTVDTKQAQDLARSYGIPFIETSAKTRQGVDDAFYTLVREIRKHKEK
Chain of KRAS Q61H (P62937 whole entry, canonical isoform): as the sequence (P62937 whole entry) above
Protocol: (§2) The purpose of this biochemical assay is to measure the ability of test compounds to facilitate ternary complex formation between a nucleotide-loaded Ras isoform and cyclophilin A; the resulting ternary complex disrupts binding to a BRAF^RBD construct, inhibiting Ras signaling through a RAF effector.
(§3) […]. Compound is present in plate wells as a 10-point 3-fold dilution series starting at a final concentration of 30 μM. After incubation at 25° C. for 3 hours, a mixture of Anti-His Eu-W1024 and anti-GST allophycocyanin is then added to assay sample wells at final concentrations of 10 nM and 50 nM, respectively, and the reaction incubated for an additional 1.5 hours. […] Compounds that facilitate disruption of a Ras:RAF complex are identified as those eliciting a decrease in the TR-FRET ratio relative to DMSO control wells.
(§4) Note—The following protocol describes a procedure for monitoring disruption of K-Ras G12C (GMP-PNP) binding to BRAF^RBD by a compound of the invention. This protocol may also be executed substituting other Ras proteins or nucleotides.
(§5) The purpose of this biochemical assay was to measure the ability of test compounds to facilitate ternary complex formation between a nucleotide-loaded K-Ras isoform and Cyclophilin A; the resulting ternary complex disrupts binding to a BRAF^RBD construct, inhibiting K-Ras signaling through a RAF effector. Data is reported as IC50 values.
(§6) […]. Compound was present in plate wells as a 10-point 3-fold dilution series starting at a final concentration of 30 μM. After incubation at 25° C. for 3 hours, a mixture of Anti-His Eu-W1024 and anti-GST allophycocyanin was then added to assay sample wells at final concentrations of 10 nM and 50 nM, respectively, and the reaction incubated for an additional 1.5 hours. […] Compounds that facilitate disruption of a K-Ras:RAF complex were identified as those eliciting a decrease in the TR-FRET ratio relative to DMSO control wells.

NRAS G12C = NRAS G12C (Homo sapiens (Human), UniProt P01111+P62937, G12C); assay: Ras-Raf (BRAF RBD) disruption / FRET / MOA assay, NRAS G12C; format: biochemical; settings: read-out: IC50* NRAS G12C FRET data
Chain of NRAS G12C (P01111 whole entry G12C): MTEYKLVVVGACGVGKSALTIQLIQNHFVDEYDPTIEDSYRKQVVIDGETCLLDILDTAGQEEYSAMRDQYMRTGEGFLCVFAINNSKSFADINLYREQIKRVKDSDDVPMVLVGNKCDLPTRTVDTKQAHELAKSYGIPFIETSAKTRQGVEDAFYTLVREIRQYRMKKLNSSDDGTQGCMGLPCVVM
Chain of NRAS G12C (P62937 whole entry): as the sequence (P62937 whole entry) above
Procedure, shortened: as §1

NRAS Q61R = NRAS Q61R (Homo sapiens (Human), UniProt P01111+P62937, Q61R); assay: Ras-Raf (BRAF RBD) disruption / FRET / MOA assay, NRAS Q61R; format: biochemical; settings: NRAS Q61R; Ras-Raf disruption/FRET/MOA assay; read-out: IC50* NRAS Q61R FRET data
Chain of NRAS Q61R (P01111 whole entry Q61R): as the sequence (P01111 whole entry G12C) above, with C12G, Q61R counted along it
Chain of NRAS Q61R (P62937 whole entry): as the sequence (P62937 whole entry) above
Protocol: as §2, §3, §4, §5, §6

NRAS Q61K = NRAS Q61K (Homo sapiens (Human), UniProt P01111+P62937, Q61K); assay: Ras-Raf (BRAF RBD) disruption / FRET / MOA assay, NRAS Q61K; format: biochemical; settings: NRAS Q61K; Ras-Raf disruption/FRET/MOA assay; read-out: IC50* NRAS Q61K FRET data
Chain of NRAS Q61K (P01111 whole entry Q61K): as the sequence (P01111 whole entry G12C) above, with C12G, Q61K counted along it
Chain of NRAS Q61K (P62937 whole entry): as the sequence (P62937 whole entry) above
Protocol: as §2, §3, §4, §5, §6

NRAS WT = NRAS WT (Homo sapiens (Human), UniProt P01111+P62937); assay: Ras-Raf (BRAF RBD) disruption / FRET / MOA assay, NRAS WT; format: biochemical; settings: read-out: IC50* NRAS WT FRET data
Chain of NRAS WT (P01111 whole entry): as the sequence (P01111 whole entry G12C) above, with C12G counted along it
Chain of NRAS WT (P62937 whole entry): as the sequence (P62937 whole entry) above
Protocol: as §2, §3, §4, §5, §6

SMILES | EC50 ([1]; Homo sapiens, NCI-H358) | IC50 (K-Ras G12C) | IC50 (K-Ras G13C) | IC50 (KRAS G12S) | IC50 (KRAS G12D) | IC50 (KRAS G12V) | IC50 (KRAS WT) | IC50 (KRAS G13D) | IC50 (KRAS Q61H) | IC50 (NRAS G12C) | IC50 (NRAS Q61R) | IC50 (NRAS Q61K) | IC50 (NRAS WT) | EC50 [1]
CCn1c(-c2cccnc2[C@H](C)OC)c2c3cc(ccc31)N1CCO[C@@H](C[C@H](NC(=O)[C@H](C(C)C)N3CC[C@@]4(CCN(C(=O)C#CC(C)(C)N(C)C)C4)C3=O)C(=O)N3CCC[C@H](N3)C(=O)OCC(C)(C)C2)C1 (atropisomer, axis not shown) [Example A614] | < 5 µM | 10 to 100 nM | 1000 to 10000 nM | > 10000 nM | > 10 µM | > 10000 nM | > 10000 nM | > 10 µM | > 10000 nM | 10 to 100 nM | > 10000 nM | > 10000 nM | > 10000 nM | –
C=CC(=O)N1CC[C@H](C(=O)N(C)[C@H](C(=O)N[C@H]2CC3=CCCN(C3)c3ccc4c(c3)c(c(-c3cccnc3[C@H](C)OC)n4CC)CC(C)(C)COC(=O)[C@@H]3CCCN(N3)C2=O)C(C)C)C1 (atropisomer, axis not shown) [Example A486] | < 5 µM | 100 to 1000 nM | 1000 to 10000 nM | > 10000 nM | > 10 µM | > 10000 nM | > 10000 nM | > 10 µM | > 10000 nM | 100 to 1000 nM | > 10000 nM | > 10000 nM | > 10000 nM | –
CO[C@@H](C)c1ncccc1-c1c2c3cc(ccc3n1CC(F)(F)F)-c1csc(n1)C[C@H](NC(=O)[C@H](C(C)C)N(C)C(=O)N1C[C@@H]3OCCN(C(=O)/C=C/CF)[C@@H]3C1)C(=O)N1CCC[C@H](N1)C(=O)OCC(C)(C)C2 (atropisomer, axis not shown) [Example A571] | < 5 µM | 100 to 1000 nM | 10 to 100 nM | 100 to 1000 nM | 1 to 10 µM | 100 to 1000 nM | 100 to 1000 nM | 1 to 10 µM | 100 to 1000 nM | 100 to 1000 nM | 100 to 1000 nM | 100 to 1000 nM | 100 to 1000 nM | –
CO[C@@H](C)c1ncccc1-c1c2c3cc(ccc3n1CC(F)(F)F)-c1nc(nn1C)C[C@H](NC(=O)[C@H](C(C)C)N(C)C(=O)C1(F)CCN(C(=O)C#CC(C)(C)N(C)C)CC1)C(=O)N1CCC[C@H](N1)C(=O)OCC(C)(C)C2 (atropisomer, axis not shown) [Example A577] | < 5 µM | < 10 nM | 10 to 100 nM | 10 to 100 nM | 0.1 to 1 µM | 100 to 1000 nM | 100 to 1000 nM | 0.1 to 1 µM | 10 to 100 nM | < 10 nM | 10 to 100 nM | 10 to 100 nM | 10 to 100 nM | –
C=CC(=O)N1CC[C@H](C(=O)N(C)[C@H](C(=O)N[C@H]2Cc3cc(O)cc(c3)-c3ccc4c(c3)c(c(-c3cccnc3)n4C(C)(C)C#N)CC(C)(C)COC(=O)[C@@H]3CCCN(N3)C2=O)C(C)C)C1 [Example A148] | < 5 µM | 10 to 100 nM and 1000 to 10000 nM | > 10000 nM and 1000 to 10000 nM | 100 to 1000 nM and > 10000 nM | 1 to 10 µM and > 10 µM | 100 to 1000 nM and > 10000 nM | 100 to 1000 nM and > 10000 nM | 1 to 10 µM and > 10 µM | 10 to 100 nM | – | 100 to 1000 nM | 100 to 1000 nM | 100 to 1000 nM | –
C=CC(=O)N1CC[C@H](C(=O)N(C)[C@H](C(=O)N[C@H]2Cc3cc(sn3)-c3ccc4c(c3)c(c(-c3cccnc3[C@H](C)OC)n4CC)CC(C)(C)COC(=O)[C@@H]3CCCN(N3)C2=O)C(C)C)C1 (atropisomer, axis not shown) [Example A340] | – | 100 to 1000 nM | 100 to 1000 nM | 1000 to 10000 nM | > 10 µM | 1000 to 10000 nM | 1000 to 10000 nM | 1 to 10 µM | 100 to 1000 nM | 100 to 1000 nM | 1000 to 10000 nM | 100 to 1000 nM | 100 to 1000 nM | –
C=CC(=O)N1CC[C@H](C(=O)N(C)C(C(=O)N[C@H]2C[C@H]3CN(CCO3)c3ccc4c(c3)c(c(-c3cccnc3[C@H](C)OC)n4CC)CC(C)(C)COC(=O)[C@@H]3CCCN(N3)C2=O)C(C)C)C1 (mixture of isomers) [Example A507] | – | 100 to 1000 nM | 1000 to 10000 nM | 1000 to 10000 nM | > 10 µM | 1000 to 10000 nM | > 10000 nM | > 10 µM | > 10000 nM | 100 to 1000 nM | > 10000 nM | > 10000 nM | 1000 to 10000 nM | –
C=CC(=O)N1CC[C@H](C(=O)N(C)[C@H](C(=O)N[C@H]2Cc3cc(O)cc(c3)-c3ccc4c(c3)c(c(-c3cc(CN(C)C)cnc3[C@H](C)OC)n4CC)CC(C)(C)COC(=O)[C@@H]3CCCN(N3)C2=O)C(C)C)C1 (atropisomer, axis not shown) [Example A537] | – | – | 10 to 100 nM | 10 to 100 nM | 0.1 to 1 µM | 10 to 100 nM | 10 to 100 nM | 0.01 to 0.1 µM | 10 to 100 nM | < 10 nM | 100 to 1000 nM | 100 to 1000 nM | 10 to 100 nM | < 5 µM
